According to PubChem BioAssay (NCI):
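Growth conditions: 96-well plates. Treatment: test compound, 48 hours, 5 concentrations. Analysis: linear interpolation between bracketing concentrations; unreached endpoints set to highest concentration. The concentration for full growth arrest is given as TGI.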

How the values were obtained:
Assay in all cases: NCI-60 cell line screen, 48 h
[1] = test system: 786-0 renal
[2] = test system: A498 renal
[3] = test system: A549 NSCLC
[4] = test system: ACHN renal
[5] = test system: CAKI-1 renal
[6] = test system: CCRF-CEM leukemia
[7] = test system: COLO 205 colon
[8] = test system: DMS 114 small cell lung
[9] = test system: DMS 273 small cell lung
[10] = test system: EKVX NSCLC
[11] = test system: HCT-116 colon
[12] = test system: HCT-15 colon
[13] = test system: HL-60(TB) leukemia
[14] = test system: HOP-18 NSCLC
[15] = test system: HOP-62 NSCLC
[16] = test system: HOP-92 NSCLC
[17] = test system: HT29 colon
[18] = test system: IGROV1 ovarian
[19] = test system: K-562 leukemia
[20] = test system: KM12 colon
[21] = test system: KM20L2 colon
[22] = test system: LOX IMVI melanoma
[23] = test system: LXFL 529 NSCLC
[24] = test system: M14 melanoma
[25] = test system: MALME-3M melanoma
[26] = test system: MOLT-4 leukemia
[27] = test system: NCI-H226 lung
[28] = test system: NCI-H23 lung
[29] = test system: NCI-H460 lung
[30] = test system: NCI-H522 lung
[31] = test system: OVCAR-3 ovarian
[32] = test system: OVCAR-4 ovarian
[33] = test system: OVCAR-5 ovarian
[34] = test system: OVCAR-8 ovarian
[35] = test system: RPMI-8226 leukemia
[36] = test system: RXF 393 renal
[37] = test system: RXF-631 renal
[38] = test system: SF-268 CNS
[39] = test system: SF-295 CNS
[40] = test system: SF-539 CNS
[41] = test system: SK-MEL-2 melanoma
[42] = test system: SK-MEL-28 melanoma
[43] = test system: SK-MEL-5 melanoma
[44] = test system: SK-OV-3 ovarian
[45] = test system: SN12C renal
[46] = test system: SNB-19 CNS
[47] = test system: SNB-75 CNS
[48] = test system: SW-620 colon
[49] = test system: TK-10 renal
[50] = test system: U251 CNS
[51] = test system: UACC-257 melanoma
[52] = test system: UACC-62 melanoma
[53] = test system: UO-31 renal
[54] = test system: XF 498 CNS
[55] = test system: HCC-2998 colon
[56] = test system: M19-MEL melanoma

Measured: TGI

CN1CCCC2[C@@H]3CCC4=C(O)C(=O)CC[C@]4(C)C3CC[C@@]21C (some centres not stated)
not listed: [55] | [56]
> 100 µM: all other assays above

N#CNCC(COCc1ccccc1)c1ccccc1 (configuration not stated)
not listed: [5] | [17] | [20] | [23] | [31] | [33] | [39] | [51]
> 100 µM: all other assays above
